Reference: PubChem BioAssay AID1845205 (Molecular Pharmacology Branch, DTP, NCI, 2023)

Test system: MPNST multicellular tumor spheroids, viability % test/control
Experiment: Anticancer human tumor MPNST cell line growth inhibition;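 further: spheroids exposed to agents for seven days after three days of growth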;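 on viability, T/C: luminescence signal used as surrogate for viable cell amount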
Settings: for IC50: curve of first compound; for viability, T/C: stronger effect = lower value
Outline: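 Complex spheroids of malignant cells with endothelial cells and mesenchymal stem cells; agents alone or combined, from near clinical Cmax (or 10 microM if unknown) down in half-log steps, 0.25% DMSO final.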

[1] = second compound 0.003 µM, first compound 0.00949 µM
[2] = second compound 0.003 µM, first compound 0.03 µM
[3] = second compound 0.003 µM, first compound 0.0949 µM
[4] = second compound 0.003 µM, first compound 0.3 µM
[5] = second compound 0.003 µM, first compound 0.949 µM
[6] = second compound 0.003 µM, first compound 3 µM

Molecule `Cc1sc2c(c1C)C(c1ccc(Cl)cc1)=NC(CC(=O)Nc1ccc(O)cc1)c1nnc(C)n1-2` (stereo not given) + COc1cc2c(cc1O)CCNC21CSC2c3c(OC(C)=O)c(C)c4c(c3C(COC1=O)N1C(O)C3Cc5cc(C)c(OC)c(O)c5C(C21)N3C)OCO4 has an IC50 (second compound 30 pM) of 0.219 µM, an IC50 (second compound 94.9 pM) of 0.155 µM and an IC50 (second compound 0.0003 µM) of 0.0584 µM. The IC50 (second compound 0.000949 µM) was under 0.00949 µM, the IC50 (second compound 0.003 µM) was under 0.00949 µM and the viability, T/C (second compound 30 pM, first compound 0.00949 µM) was 86.9%. The viability, T/C (second compound 30 pM, first compound 0.03 µM) was 71%, the viability, T/C (second compound 30 pM, first compound 0.0949 µM) was 85.7% and the viability, T/C (second compound 30 pM, first compound 0.3 µM) was 38.2%. For the same molecule, the viability, T/C (second compound 30 pM, first compound 0.949 µM) was 26.3%, the viability, T/C (second compound 30 pM, first compound 3 µM) was 24% and the viability, T/C (second compound 94.9 pM, first compound 0.00949 µM) was 62.5%. For the same molecule, the viability, T/C (second compound 94.9 pM, first compound 0.03 µM) was 70.3%, the viability, T/C (second compound 94.9 pM, first compound 0.0949 µM) was 56.6% and the viability, T/C (second compound 94.9 pM, first compound 0.3 µM) was 39.3%. For the same molecule, the viability, T/C (second compound 94.9 pM, first compound 0.949 µM) was 27.9%, the viability, T/C (second compound 94.9 pM, first compound 3 µM) was 23.9% and the viability, T/C (second compound 0.0003 µM, first compound 0.00949 µM) was 59.6%. It also gave a viability, T/C (second compound 0.0003 µM, first compound 0.03 µM) of 53.3%, a viability, T/C (second compound 0.0003 µM, first compound 0.0949 µM) of 47.5% and a viability, T/C (second compound 0.0003 µM, first compound 0.3 µM) of 36.3%. For the same molecule, the viability, T/C (second compound 0.0003 µM, first compound 0.949 µM) was 26.6%, the viability, T/C (second compound 0.0003 µM, first compound 3 µM) was 22.4% and the viability, T/C (second compound 0.000949 µM, first compound 0.00949 µM) was 31%. It also gave a viability, T/C (second compound 0.000949 µM, first compound 0.03 µM) of 29.7%, a viability, T/C (second compound 0.000949 µM, first compound 0.0949 µM) of 27.4% and a viability, T/C (second compound 0.000949 µM, first compound 0.3 µM) of 21.6%. It also gave a viability, T/C (second compound 0.000949 µM, first compound 0.949 µM) of 12.7%, a viability, T/C (second compound 0.000949 µM, first compound 3 µM) of 14.8% and a viability, T/C [1] of 6.19%. For the same molecule, the viability, T/C [2] was 4.21%, the viability, T/C [3] was 4.96% and the viability, T/C [4] was 1.41%. The viability, T/C [5] was 2.26% and the viability, T/C [6] was 1.94%.
`Cn1ncnc1[C@H]1c2n[nH]c(=O)c3cc(F)cc(c23)N[C@@H]1c1ccc(F)cc1` + CC[C@@]1(O)C(=O)OCc2c1cc1n(c2=O)Cc2cc3c(CN(C)C)c(O)ccc3nc2-1 showed an IC50 (second compound 0.003 µM) of over 3 µM, an IC50 (second compound 0.00949 µM) of over 3 µM and an IC50 (second compound 0.03 µM) of over 3 µM. The IC50 (second compound 0.0949 µM) was over 3 µM, the IC50 (second compound 0.3 µM) was under 0.00949 µM and the viability, T/C [1] was 90.6%. For the same molecule, the viability, T/C [2] was 77.2%, the viability, T/C [3] was 72.3% and the viability, T/C [4] was 68.7%. The viability, T/C [5] was 62.2%, the viability, T/C [6] was 60.1% and the viability, T/C (second compound 0.00949 µM, first compound 0.00949 µM) was 65%. For the same molecule, the viability, T/C (second compound 0.00949 µM, first compound 0.03 µM) was 65.6%, the viability, T/C (second compound 0.00949 µM, first compound 0.0949 µM) was 60.5% and the viability, T/C (second compound 0.00949 µM, first compound 0.3 µM) was 63.9%. It also gave a viability, T/C (second compound 0.00949 µM, first compound 0.949 µM) of 59.4%, a viability, T/C (second compound 0.00949 µM, first compound 3 µM) of 59.9% and a viability, T/C (second compound 0.03 µM, first compound 0.00949 µM) of 56.7%. It also gave a viability, T/C (second compound 0.03 µM, first compound 0.03 µM) of 59%, a viability, T/C (second compound 0.03 µM, first compound 0.0949 µM) of 61.1% and a viability, T/C (second compound 0.03 µM, first compound 0.3 µM) of 59.7%. For the same molecule, the viability, T/C (second compound 0.03 µM, first compound 0.949 µM) was 64%, the viability, T/C (second compound 0.03 µM, first compound 3 µM) was 61.1% and the viability, T/C (second compound 0.0949 µM, first compound 0.00949 µM) was 59.7%. It also gave a viability, T/C (second compound 0.0949 µM, first compound 0.03 µM) of 55.8%, a viability, T/C (second compound 0.0949 µM, first compound 0.0949 µM) of 58.8% and a viability, T/C (second compound 0.0949 µM, first compound 0.3 µM) of 61.6%. The viability, T/C (second compound 0.0949 µM, first compound 0.949 µM) was 59.1%, the viability, T/C (second compound 0.0949 µM, first compound 3 µM) was 55.6% and the viability, T/C (second compound 0.3 µM, first compound 0.00949 µM) was 49.5%. The viability, T/C (second compound 0.3 µM, first compound 0.03 µM) was 48.5%, the viability, T/C (second compound 0.3 µM, first compound 0.0949 µM) was 49.2% and the viability, T/C (second compound 0.3 µM, first compound 0.3 µM) was 52.7%. For the same molecule, the viability, T/C (second compound 0.3 µM, first compound 0.949 µM) was 53% and the viability, T/C (second compound 0.3 µM, first compound 3 µM) was 46.3%.
